# Test results published in publication PMC5519068 (PLoS ONE, 2017).
# Read-outs that look alike come from different tables or passages of the source.
# Experiments:
# [1] = biological target: Flt3-ITD kinase domain (Homo sapiens, UniProt P36888); experiment: In vitro kinase assay (Z'-LYTE); assay type: biochemical; conditions: ATP at Km
# Description: (§1) Recombinant protein kinase assays were performed using the FRET-based Z’-LYTE Kinase Assay according to the manufacturer’s instructions (Thermo Fisher Scientific). […] The Tyr-2 peptide was used as substrate for all recombinant kinases. Kinases were preincubated with inhibitors for 30 minutes, followed by addition of ATP and peptide substrate for 1 hour. Reactions were quenched by addition of development reagent, followed by incubation for an additional hour prior to fluorescence measurements on a SpectraMax M5 microplate reader. IC50 values were calculated by non-linear regression analysis of the resulting concentration-response curves using GraphPad PRISM.
# [2] = biological target: T1, Flt3-WT kinase domain (Homo sapiens, UniProt P36888); experiment: In vitro kinase assay (Z'-LYTE); assay type: biochemical; conditions: ATP at Km
# T1 construct: Recombinant Flt3-WT, Flt3-ITD, and Flt3-D835Y kinase domain proteins were purchased from Life Technologies; purchased Life Technologies
# Description: as §1
# [3] = biological target: T2, Flt3-D835Y kinase domain (Homo sapiens, UniProt P36888, D835Y); experiment: In vitro kinase assay (Z'-LYTE); assay type: biochemical; conditions: for IC50: ATP at Km
# T2 construct: Recombinant Flt3-WT, Flt3-ITD, and Flt3-D835Y kinase domain proteins were purchased from Life Technologies; purchased Life Technologies
# T2 sequence (P36888 610-943 D835Y limits assumed): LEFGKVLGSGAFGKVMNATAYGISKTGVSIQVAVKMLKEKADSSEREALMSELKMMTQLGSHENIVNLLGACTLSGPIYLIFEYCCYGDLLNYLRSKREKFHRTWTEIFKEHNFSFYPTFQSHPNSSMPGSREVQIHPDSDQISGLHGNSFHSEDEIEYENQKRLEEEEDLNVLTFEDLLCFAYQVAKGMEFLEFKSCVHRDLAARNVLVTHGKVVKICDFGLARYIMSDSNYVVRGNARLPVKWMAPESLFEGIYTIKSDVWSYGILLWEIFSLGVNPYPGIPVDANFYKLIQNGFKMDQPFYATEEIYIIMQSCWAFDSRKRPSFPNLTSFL
# Description: as §1
# [4] = system: Flt3-ITD+ AML cell lines (MV4-11, MOLM-13, MOLM-14); experiment: Growth inhibition across Flt3-ITD+ AML cell lines; assay type: cell-based; conditions: Homo sapiens, 72 h
# Description: (§2) Cells were seeded at a density of 100,000 cells per 1.0 ml in 48-well culture plates. Compounds were added to various concentrations while holding the DMSO concentration constant at 0.1%. Cell viability was assessed 72 hours later using the CellTiter-Blue Cell Viability assay (Promega) according to the manufacturer’s protocol and a SpectraMax Multi-Mode Microplate Reader (Molecular Devices). IC50 values were determined by non-linear regression analysis of concentration-response curves using the GraphPad PRISM software package (version 6.0). Apoptosis was determined using the same cell culture conditions and the Apo-ONE Homogeneous Caspase-3/7 Assay (Promega) and the manufacturer’s protocol.
# Raw fluorescence data were corrected for background and then normalized to cultures grown in the presence of the DMSO carrier solvent. Each assay condition was performed in triplicate, and results are presented as the mean of the normalized values ± the SD.
# [5] = system: TF-1 cells expressing Flt3-WT; experiment: Inhibitor sensitivity of TF-1 cell populations, CellTiter-Blue, 72 h; assay type: cell-based
# Description: as §2
# For each retroviral transduction, TF-1 cells (1 x 10^6) were suspended in 5 mL of undiluted viral supernatant and plated in one well of a 6-well tissue culture dish. Polybrene (Sigma) was added to a final concentration of 4 μg/mL and the TF-1 cells were centrifuged at 1000 x g for 3 hours to enhance retroviral mediated gene transfer. After centrifugation, the virus was removed and replaced with fresh medium.
# (§3) Raw fluorescence data were corrected for background and then normalized to cultures grown in the presence of the DMSO carrier solvent. Each condition was performed in triplicate, and results are presented as the mean of the normalized values ± the SD. The resulting dose-response curves were fitted by non-linear regression analysis for estimation of the IC50 values (see Table 2). […] Fes and Flt3 kinase proteins were then immunoprecipitated from cell lysates followed by immunoblotting with antibodies to phosphotyrosine (pTyr), the Fes activation loop phosphotyrosine (pY713), as well as the Flt3 and Fes proteins.
# [6] = system: T3, Fes in MV4-11 and MOLM-14 cells; experiment: Immunoprecipitation/immunoblot of Fes activation loop phosphorylation (pY713) in AML cells; assay type: cell-based, human; conditions: compound at in vitro IC90 for Fes, 16 h (tandutinib: IC90 for Flt3-ITD, 6 h)
# T3 construct: endogenous in cells; host or cells: MV4-11 and MOLM-14
# Description: (§4) AML cells (2.5 x 10^6 in 5 mL) were cultured in the presence of kinase inhibitors or DMSO alone for 6 to 16 hours prior to lysis by sonication in RIPA buffer (50 mM Tris-HCl, pH 7.4, 150 mM NaCl, 1 mM EDTA, 1% Triton X-100, 0.1% SDS, 1% sodium deoxycholate) supplemented with 1 mM sodium orthovanadate, 1 mM sodium fluoride, 5 units/ml Benzonase (Novagen), and SigmaFAST EDTA-free protease inhibitor cocktail (Sigma). Flt3 and Fes were immunoprecipitated from 1 mg of cell lysate with 2 μg of antibody and 25 μL of protein G-Sepharose beads (Life Technologies) overnight at 4°C. Immunoprecipitates were washed three times by resuspension in 1.0 ml of RIPA buffer. Immunoprecipitated proteins were separated by SDS-PAGE, transferred to PVDF membranes and probed with the indicated antibodies followed by alkaline phosphatase-linked secondary antibodies. CDP-Star Western Blot Chemiluminescence Reagent (Perkin-Elmer) was used for detection.
# Fes and Flt3 kinase proteins were then immunoprecipitated from cell lysates, followed by immunoblotting with antibodies to phosphotyrosine (pTyr), the Fes activation loop phosphotyrosine (pY713), as well as the Flt3 and Fes proteins.
# [7] = system: Flt3-D835Y in TF-1/Flt3-D835Y cells; experiment: Immunoprecipitation/immunoblot of Flt3-D835Y phosphotyrosine content in TF-1/Flt3-D835Y cells; assay type: cell-based, human; conditions: immunoblot, compound at in vitro IC90
# Description: as §4, §3
# [8] = system: Flt3-ITD+ AML cell lines (MV4-11, MOLM-13, MOLM-14); experiment: Apoptosis, Apo-ONE Caspase 3/7 assay; assay type: cell-based, human; conditions: 1.0 μM, 72 h
# Description: as §2
# Cell viability was measured in parallel using the CellTiter-Blue assay, and the resulting data are presented as the ratio of Caspase activity to cell viability as per the manufacturer’s protocol. All assays were performed in triplicate, and data are presented as the mean ratios ± SD. Asterisks indicate statistical significance between each treatment group vs. the corresponding DMSO control group with p < 0.05 (Student’s t-test).
# [9] = system: Flt3-ITD in TF-1/Flt3-ITD cells; experiment: Immunoprecipitation/immunoblot of Flt3 phosphotyrosine content in TF-1/Flt3-ITD cells; assay type: cell-based, human; conditions: compound at in vitro IC90 for Fes, 16 h (tandutinib: IC90 for Flt3-ITD, 6 h)
# Description: as §4, §3
SMILES,IC50 [1] [nM],IC50 [2] [nM],IC50 [3] [nM],Sensitivity of Flt3-D835Y compared to wild-type Flt3 in vitro ([3]; in vitro kinase assays),IC50 ([4]; read-out: IC50 values for growth inhibition in all three Flt3-ITD+ AML cell lines) [nM],"IC50 ([5]; Homo sapiens, TF-1, 72 h, read-out: Inhibitor sensitivity of TF-1 Cell Populations (IC50, nM) Flt3-WT) [nM]",Inhibition of Fes activation loop phosphorylation in MV4-11 and MOLM-14 cells [6],Inhibition of Flt3-D835Y phosphotyrosine content in TF-1/Flt3-D835Y cells [7],Apoptosis (Caspase 3/7 activity) in Flt3-ITD+ AML cell lines [8],Inhibition of Flt3-ITD phosphotyrosine content in TF-1/Flt3-ITD cells [9],"IC50 ([4]; MV4-11, MOLM-13, MOLM-14, read-out: IC50 values for growth inhibition, range over the Flt3-ITD+ AML cell lines) [nM]","IC50 ([5]; Homo sapiens, TF-1, 72 h; read-out: Inhibitor sensitivity of TF-1 Cell Populations (IC50, nM) Flt3-WT) [nM]"
COc1cc(N2CCC(O)CC2)ccc1Nc1nc(Nc2ccccc2S(=O)(=O)C(C)C)c2cn[nH]c2n1 [WZ4-49-1],1390,3140,642,about 5 fold,~1000,> 3000,only inhibited Fes,complete inhibition,less pronounced,only inhibited the activity of Fes,–,–
CCN1CCN(Cc2ccc(NC(=O)c3ccc(C)c(Oc4ccnc5[nH]ccc45)c3)cc2C(F)(F)F)CC1 [HG7-92-01],149,536,3650,–,–,–,inhibited Flt3-ITD and Fes in both cell lines,without effect,equal to or greater than that observed with tandutinib,inhibited both Flt3-ITD and Fes,19 to 166,> 1000
